{
  "source": "patent US20220054532A1",
  "about": "“VETERINARY COMPOSITIONS AND METHODS OF USE THEREFOR” (priority 2019, published 2022)",
  "format_in_all_cases": "in vivo",
  "key": {"[1]": {"test_system": "dogs suffering from cognitive dysfunction syndrome", "experiment": "Example 10: cognitive decline, Cognitive Dysfunction Screening Checklist (CBD Complex)", "settings": "for Average Final Score: day 60, BID", "description": "(§1) This example examines the ability of embodiments of the invention versus Anipryl® to treat cognitive decline.\nThe patient group is twenty dogs suffering from cognitive dysfunction syndrome, as determined by the Cognitive Dysfunction Screening Checklist. See G. Landsberg et al., 2003 HANDBOOK OF BEHAVIOR PROBLEMS OF THE DOG AND CAT (Elsevier Science Limited) (2003). The twenty dogs are broken into five groups of four dogs. The first group receives Anipryl® as the sole active agent; the second group receives a composition comprising HMW HA as the sole active agent; the third group receives a composition comprising CBD as the sole active agent; the fourth group receives a composition comprising HMW HA and CBD Complex as the active agents; and the fifth group receives a composition comprising HMW HA, CBD Complex, nicotinamide adenine dinucleotide (“NAD”), and phosphatidylserine as the active agents.\n(§2) Each composition is administered for a period of sixty (60) days, twice per day (“BID”). The owner completes the Checklist on days 0 (“Initial Score”), 15, 30, 45, and 60 (“Final Score”) of treatment.\nEach group is evaluated and Checklist scores averaged. The following scores are observed and the results depicted in FIG. 10: […]"}, "[2]": {"test_system": "dogs suffering from cognitive dysfunction syndrome", "experiment": "Example 2: cognitive decline, Cognitive Dysfunction Screening Checklist", "settings": "for Average Final Score: day 60, BID", "description": "as §1\nThe patient group is twenty dogs suffering from cognitive dysfunction syndrome, as determined by the Cognitive Dysfunction Screening Checklist. See G. Landsberg et al., 2003 HANDBOOK OF BEHAVIOR PROBLEMS OF THE DOG AND CAT (Elsevier Science Limited) (2003). The twenty dogs are broken into five groups of four dogs. The first group receives Anipryl® as the sole active agent; the second group receives a composition comprising HMW HA as the sole active agent; the third group receives a composition comprising CBD as the sole active agent; the fourth group receives a composition comprising HMW HA and CBD as the active agents; and the fifth group receives a composition comprising HMW HA, CBD, nicotinamide adenine dinucleotide (“NAD”), and phosphatidylserine as the active agents.\nas §2\nEach group is evaluated and Checklist scores averaged. The following scores are observed and the results depicted in FIG. 2: […]"}, "[3]": {"test_system": "dogs suffering from heart failure", "experiment": "Example 7: heart failure in dogs", "settings": "heart failure scale 1 (few to no clinical signs) to 10 (severe)", "description": "This example examines the ability of embodiments of the invention versus enalapril to treat heart failure.\nThe patient group is twenty-four dogs suffering from heart failure.\nThe patient group is broken into six groups of four dogs. The first group receives enalapril as the sole active agent; the second group receives a composition comprising enalapril and Lasix®; the third group receives a composition comprising HMW HA as the sole active agent; the fourth group receives a composition comprising CBD as the sole active agent; the fifth group receives a composition comprising HMW HA and CBD as the active agents; and the sixth group receives a composition comprising HMW HA, CBD, liposomal CoQ10, hawthorn berry, and ginko biloba as the active agents.\nEach composition is administered for a period of ninety (90) days, BID. Each animal is evaluated on days 0 (“Initial Score”), 30, 60, and 90 (“Final Score”) of treatment. The results are averaged and characterized on a scale of 1 (few to no clinical signs of heart failure) to 10 (severe heart failure).\nThe following canine scores are observed and the results depicted in FIG. 7: […]"}, "[4]": {"test_system": "dogs suffering from GI-specific inflammation", "experiment": "Example 3: GI-specific inflammation, owner-rated symptom reduction (canine)", "settings": "symptom reduction score 0 (no reduction) to 4 (resolution of symptoms)", "description": "(§3) This example examines the ability of embodiments of the invention versus Pepcid® to treat unwanted GI-specific inflammation characterized by gastritis, reflux, vomiting, diarrhea, and inappetence.\n(§4) The first patient group is twenty dogs suffering from GI-specific inflammation. The second patient group is twenty cats suffering from GI-specific inflammation. Each patient group is broken into five groups of four animals. The first groups receive Pepcid® as the sole active agent; the second groups receive a composition comprising HMW HA as the sole active agent; the third groups receive a composition comprising CBD as the sole active agent; the fourth groups receive a composition comprising HMW HA and CBD as the active agents; and the fifth groups receive a composition comprising HMW HA, CBD, and glutathione as the active agents.\n(§5) Each composition is administered for a period of twenty-eight (28) days, BID. The owner observes potential reduction of symptoms at the end of treatment and rates the reduction as no reduction (score of 0), mild reduction (score of 1), moderate reduction (score of 2), significant reduction (score of 3), or resolution of symptoms (score of 4).\nThe following canine scores are observed and the results depicted in FIG. 3a: […]"}, "[5]": {"test_system": "dogs suffering from GI-specific inflammation", "experiment": "Example 11: GI-specific inflammation, owner-rated symptom reduction (canine, CBD Complex)", "settings": "canine (FIG. 11a), symptom reduction score 0 (no reduction) to 4 (resolution of symptoms)", "description": "as §3\nas §4, with “and CBD Complex as the” for “and CBD as the”, “HMW HA, CBD Complex, and glutathione” for “HMW HA, CBD, and glutathione”\nas §5"}, "[6]": {"test_system": "cats suffering from GI-specific inflammation", "experiment": "Example 11: GI-specific inflammation, owner-rated symptom reduction", "settings": "species not given, symptom reduction score 0 to 4", "description": "as §3\nas §4, with “and CBD Complex as the” for “and CBD as the”, “HMW HA, CBD Complex, and glutathione” for “HMW HA, CBD, and glutathione”\nas §5"}, "[7]": {"test_system": "cats suffering from GI-specific inflammation", "experiment": "Example 3: GI-specific inflammation, owner-rated symptom reduction (feline)", "settings": "symptom reduction score 0 (no reduction) to 4 (resolution of symptoms)", "description": "as §3, §4, §5\nThe following feline scores are observed and the results depicted in FIG. 3b: […]"}, "[8]": {"test_system": "dogs with a history of severe, chronic skin issues, atopy, pruritis, yeast overgrowth, and/or infection", "experiment": "Example 8: skin conditions (itch score) and side effects in dogs", "parameters": "Average Side Effect Score: scale not given here", "description": "(§6) This example examines the ability of embodiments of the invention versus prednisone to treat skin conditions.\n(§7) The patient group is twenty-four dogs with a history of severe, chronic skin issues, atopy, pruritis, yeast overgrowth, and/or infection, as diagnosed by their referring veterinarian. The patient group is broken into six groups of four animals. The first group receives prednisone as the sole active agent; the second group receives a composition comprising prednisone and HMW HA as the active agents; the third group receives a composition comprising HMW HA as the sole active agent; the fourth group receives a composition comprising CBD as the sole active agent; the fifth group receives a composition comprising HMW HA and CBD as the active agents; and the sixth group receives a composition comprising HMW HA, CBD, quercetin, and nettles as the active agents.\n(§8) Each composition is administered for a period of sixty (60) days, BID. Each dog is evaluated on days 0 (“Initial Score”), 20, 40, and 60 (“Final Score”) of treatment. The results are averaged and characterized on a scale of 0 (no itching—normal dog), 2 (very mild itching—only occasional episodes), 4 (mild itching), 6 (moderate itching—regular episodes), 8 (severe itching—prolonged episodes), to 10 (extremely severe itching—almost continuous).\nThe following scores are observed and the results depicted in FIG. 8: […]"}, "[9]": {"test_system": "dogs with a history of severe, chronic skin issues, atopy, pruritis, yeast overgrowth, and/or infection", "experiment": "Example 16: skin conditions (itch score) and side effects in dogs (CBD Complex)", "settings": "dogs with skin conditions; 60 days BID", "description": "as §6\nas §7, with “and CBD Complex as the” for “and CBD as the”, “HMW HA, CBD Complex, quercetin, and” for “HMW HA, CBD, quercetin, and”\nas §8"}, "[10]": {"test_system": "dogs suffering from osteoarthritis", "experiment": "Example 1: pain relief and side effects in canine osteoarthritis", "settings": "dogs with osteoarthritis, 4 weeks of administration, group average", "description": "(§9) This example examines the ability of various compositions to minimize pain and examines the level of adverse side effects of each composition.\n(§10) At the outset of the study, participants receive a full physical examination, including weight measurement, thigh circumference, and CBC/blood chemistries. Because osteoarthritis is not only a disease of pain, but one characterized by behavioral, appetite, anxiety/aggression, family socialization, and sleep aberrations, the pet's owners are familiarized with the pain scale (canine orthopedic index) and additional behavioral assessment log.\nThe patient group is twenty-four dogs suffering from osteoarthritis, broken into eight groups of three dogs. The first group receives a control composition with no active agent; the second group receives a composition comprising HA as the sole active agent; the third group receives a composition comprising HMW HA as the sole active agent; the fourth group receives a composition comprising CBD as the sole active agent; the fifth group receives a composition comprising HA and CBD as the active agents; the sixth group receives a composition comprising HMW HA and CBD as the active agents; the seventh group receives a composition comprising Rimadyl as the active agent; and the eighth group receives a composition comprising Meloxicam as the active agent.\n(§11) Each composition is administered for a period of four (4) weeks. The owner completes the electronic log questionnaire each week. At the end of the 4-week study, participants have another full physical examination, including weight measurement, thigh circumference, and CBC/blood chemistries, with an exit interview of the owners to gain final impressions.\nEach group is evaluated for pain scores and the scores averaged. The following scores are observed and the results depicted in FIG. 1: […]"}, "[11]": {"test_system": "dogs suffering from osteoarthritis", "experiment": "Example 9: pain relief and side effects in canine osteoarthritis (CBD Complex)", "settings": "dogs with osteoarthritis, 4 weeks of administration, group average", "description": "as §9, §10\nThe patient group is twenty-four dogs suffering from osteoarthritis, broken into eight groups of three dogs. The first group receives a control composition with no active agent; the second group receives a composition comprising HA as the sole active agent; the third group receives a composition comprising HMW HA as the sole active agent; the fourth group receives a composition comprising CBD as the sole active agent; the fifth group receives a composition comprising HA and CBD as the active agents; the sixth group receives a composition comprising HMW HA and CBD Complex as the active agents; the seventh group receives a composition comprising Rimadyl as the active agent; and the eighth group receives a composition comprising Meloxicam as the active agent.\nas §11\nEach group is evaluated for pain scores and the scores averaged. The following scores are observed and the results depicted in FIG. 9: […]"}},
  "data": [
    {"compound": "C#CCN(C)[C@H](C)Cc1ccccc1", "note": "[Anipryl ®, Selegiline]", "values": [
      {"measurement": "Average Initial Score", "setting": "[1]; day 0 (before treatment)", "value": 3},
      {"measurement": "Average Final Score", "setting": "[1]", "value": 2},
      {"measurement": "Average Final Score", "setting": "[1]; listed as Anipryl®", "value": "as effective as HMW HA alone"},
      {"measurement": "Average Initial Score", "setting": "[2]; day 0 (before treatment)", "value": 3},
      {"measurement": "Average Final Score", "setting": "[2]", "value": 2},
      {"measurement": "Average Final Score", "setting": "[2]; listed as Anipryl®", "value": "as effective as HMW HA alone"}
    ]},
    {"compound": "CCOC(=O)[C@H](CCc1ccccc1)N[C@@H](C)C(=O)N1CCC[C@H]1C(=O)O", "note": "[Enalapril]", "values": [
      {"measurement": "Initial Score", "setting": "[3]; day 0", "value": 8},
      {"measurement": "Final Score", "setting": "[3]; day 90, BID", "value": 5}
    ]},
    {"compound": "NC(N)=Nc1nc(CSCCC(N)=NS(N)(=O)=O)cs1", "note": "[Pepcid ®, Famotidine]", "values": [
      {"measurement": "Final Score", "setting": "[4]; after 28 days BID", "value": 1},
      {"measurement": "Initial Score", "setting": "[4]; initial", "value": 0},
      {"measurement": "Final Score", "setting": "[5]; after 28 days BID", "value": 1},
      {"measurement": "Initial Score", "setting": "[5]; initial", "value": 0},
      {"measurement": "Final Score", "setting": "[6]; after 28 days BID", "value": 1},
      {"measurement": "Initial Score", "setting": "[6]; initial", "value": 0},
      {"measurement": "Final Score", "setting": "[7]; after 28 days BID", "value": 1},
      {"measurement": "Initial Score", "setting": "[7]; initial", "value": 0}
    ]},
    {"compound": "C[C@]12C=CC(=O)C=C1CC[C@@H]1[C@@H]2C(=O)C[C@@]2(C)[C@H]1CC[C@]2(O)C(=O)CO", "note": "[Prednisone]", "values": [
      {"measurement": "Average Side Effect Score", "setting": "[8]; dogs with skin conditions, 60 days BID", "value": 17},
      {"measurement": "Initial Itch Score", "setting": "[8]; itch scale 0 (no itching) to 10 (extremely severe), day 0", "value": 9},
      {"measurement": "Final Itch Score", "setting": "[8]; itch scale 0 (no itching) to 10 (extremely severe), day 60, BID", "value": 6},
      {"measurement": "Average Side Effect Score", "setting": "[9]", "value": 17}
    ]},
    {"compound": "hyaluronic acid [HA Alone]", "values": [
      {"measurement": "Average Pain Score", "setting": "[10]", "value": 18},
      {"measurement": "Average Side Effect Score", "setting": "[10]", "value": 6},
      {"measurement": "Average Pain Score", "setting": "[10]; listed as HA alone", "value": "only slightly reduce pain"},
      {"measurement": "Average Side Effect Score", "setting": "[10]; listed as HA alone", "value": "low degree of adverse side effects"},
      {"measurement": "Average Pain Score", "setting": "[11]", "value": 18},
      {"measurement": "Average Side Effect Score", "setting": "[11]", "value": 6},
      {"measurement": "Average Pain Score", "setting": "[11]; listed as HA alone", "value": "only slightly reduce pain"},
      {"measurement": "Average Side Effect Score", "setting": "[11]; listed as HA alone", "value": "low degree of adverse side effects"}
    ]}
  ]
}
